# From patent US9169509B2, “Topoisomerase 2b as a predictor of susceptibility to anthracycline-induced cardiotoxicity” (Board of Regents, The University of Texas System, priority 2013, dated 2015)
# Experiments:
# Format in all cases: in vivo, mouse
# cardiomyocytes [1] = assay: Oxygen consumption rate (Seahorse XF96) of isolated cardiomyocytes; conditions: wild type cardiomyocytes, 72 hrs after doxorubicin 25 mg/kg; not in Top2b deleted
# Procedure: FIGS. 5a-c: a. Determination of oxygen consumption rate (OCR). Cardiomyocytes were isolated from hearts of Top2b^+/+ and Top2b^Δ/Δ mice 72 hrs after treatment with doxorubicin (25 mg/kg; right bars) or drug vehicle (left bars). The cardiomyocytes were seeded in 96-well plates for oxygen consumption measurement using a Seahorse XF96 instrument. OCR was measured continuously for 90 min in […] from each mouse. The basic OCR was hardly changed during the 90 min measurement, therefore, the OCR at 90 min was compared among the groups. After measurement, the number of cells was counted. Results were normalized as pmoles of oxygen consumed per min per 1,000 cells. Bars represent means±SEM. Asterisk indicates statistically significant difference (p<0.05). b. ROS production in the hearts. Representative images of heart sections stained with Dihydroethidium (DHE), which, after being oxidized, intercalates into DNA and stains the nuclei red. Hearts were harvested 16 hrs after doxorubicin treatment (25 mg/kg) and snap-frozen as described. Heart sections were stained with DHE immediately. […] Quantification of ROS production in FIG. 5b. The numbers of DHE-positive and total nuclei were counted as described and the percentage of DHE-positive nuclei was determined. Quantitative data (mean±SEM) were shown as a bar graph below the images. […]
# cardiomyocytes [2] = assay: Microarray gene expression profiling with Ingenuity pathway analysis of cardiomyocytes isolated from doxorubicin-treated mice
# Procedure: Microarray-based Ingenuity pathway analysis was next used to study the effect of doxorubicin treatment in the Top2b^+/+ and Top2b^Δ/Δ heart in an unbiased way. Mice were treated with tamoxifen for 5 consecutive days. […] Cardiomyocytes were prepared from excised heart and mRNAs were extracted for microarray analysis. Ingenuity pathway analysis of microarray data based on expression changes (>1.5 fold) of 59,306 genes upon doxorubicin treatment identified perturbation (mainly activation) in p53 and β-adrenergic signaling pathways in Top2b^+/+ cardiomyocytes (left bars), but not in Top2bΔ/Δ cardiomyocytes (center bars) (FIG. 1a, FIG. 4a, and Table 1). No difference was found between untreated Top2b^+/+ and Top2b^Δ/Δ cardiomyocytes (right bars). Of particular interest is a 200 fold up-regulation of the transcript encoding p53DINP1, a p53-inducible gene that regulates apoptosis (Sohal et al., 2001) (FIG. 4b). There were also increases in the transcript of Apaf1, Bax, and Fas, genes important in the apoptosis pathway (Ogasawara et al., 1983) (FIG. 4c). Both p53DINP1, Apaf1, Bax, Mdm2, and Fas up-regulation were only observed in doxorubicin-treated Top2b^+/+, but not Top2b^Δ/Δ cardiomyocytes. This is consistent with the previous observation that doxorubicin and Top2b formed a DNA ternary cleavage complex to induce DNA double strand breaks (DSBs), leading to cell death (9).
# To gain further insight into the pathogenesis of doxorubicin-induced cardiotoxicity, the transcriptome analysis was repeated 72 h following doxorubicin exposure. The Ingenuity pathway analysis of microarray data based on expression changes (>1.5 fold) of 59,306 genes upon doxorubicin treatment identified perturbation (mainly repression) in the mitochondria dysfunction and oxidative phosphorylation pathways in Top2b^+/+ cardiomyocytes (left bars), but not in Top2b^Δ/Δ cardiomyocytes (middle bars). No difference was found between untreated Top2b^+/+ and Top2b^Δ/Δ cardiomyocytes (right bars). There was a complete change in the ingenuity pathway profiles 72 h following doxorubicin exposure (FIGS. 1a,d). Early activation in the p53 pathway was replaced by mitochondrial dysfunction and oxidative phosphorylation pathways in the Top2b^+/+, but not Top2b^Δ/Δ cardiomyocytes (FIGS. 1a,d and Table 2). […] This was confirmed by qPCR of analysis of PGC-1α and PGC-1β transcripts (FIG. 1e). […] Consistent with the critical role exerted by PGC-1α and PGC-1β in mitochondrial biogenesis (Arany, Z. et al., 2006; Lai, L. et al., 2008), transcripts of key electron transport chains, such as Ndufa3 (NADH dehydrogenase 1 alpha subcomplex, 3, Complex1), Sdha (succinate dehydrogenase complex, subunit A, Complex II), and Atp5a (alpha subunit of Complex V) were decreased in the doxorubicin treated Top2b^+/+, but much less so in Top2b^Δ/Δ cardiomyocytes (FIG. 1e). […] Thus, in the presence of Top2b, doxorubicin caused decreases in transcripts of genes involved in the regulation of mitochondria biogenesis and function.
# Total RNA was extracted from cardiomyocytes isolated from mouse heart 16 or 72 h after treatment with doxorubicin (25 mg/kg) or drug vehicle using TRIZOL reagent (Invitrogen), then purified with RNeasy Mini Kit (Qiagen) according to the manufacturer's instructions. Purified RNA samples were shipped on dry ice to Miltenyi Biotec Inc. for microarray analysis. Quality control of the sample RNA was performed by the company. Before hybridization, 100 ng of each sample RNA was used for T7-based amplification and Cy3 labeling. The hybridization procedure was performed according to the Agilent 60-mer oligo microarray processing protocol using the Agilent Gene Expression Hybridization Kit (Agilent Technologies). After an overnight hybridization (65° C.) the microarrays were washed and scanned using Agilent Microarray Scanner System (Agilent Technologies).
# heart sections = assay: Detection of apoptosis in heart sections (TUNEL assay); conditions: after acute doxorubicin treatment
# Procedure: Apoptosis was detected by using TUNEL assay on heart sections. Heart harvest, sectioning, and storage were described above. Heart sections were warmed to room temperature before the apoptotic nuclei were stained by using a commercially available kit (In Situ Cell Death Detection Kit, Cat. No. 12156792910, Roche Applied Science). The entire staining procedures were performed according to the manufacturer's instructions. The nuclei were stained with DAPI (Sigma) before the slides were sealed and examined with an Olympus epifluorescence microscope (Model BX51). The apoptotic nuclei and the total nuclei per heart section were counted at 200× magnification. The apoptotic nuclei in 5 heart sections of each mouse were counted and averaged.
# The cardio-protective effect of Dex against doxirubin-induced apoptosis was assessed in heart tissues. Dexrazoxane (100 mg/kg) was injected (ip) 8 hrs prior to doxorubicin (25 mg/kg) injection (ip). One group received only doxorubicin and a second group received only dexrazoxane. Hearts were harvested 16 hrs after doxorubicin treatment. The numbers of TUNEL-positive nuclei were counted in five fields in each heart section.
# [3] = Top2b+/+ cardiomyocytes, 72 hrs after doxorubicin 25 mg/kg
# [4] = wild type hearts, 72 h after doxorubicin, not in Top2b deleted
smiles,measurement,setting,value
COc1cccc2c1C(=O)c1c(O)c3c(c(O)c1C2=O)C[C@@](O)(C(=O)CO)C[C@@H]3O[C@H]1C[C@H](N)[C@H](O)[C@H](C)O1 [doxorubicin],Oxygen consumption rate (OCR),cardiomyocytes [1],significantly reduced
same,"Up-regulated genes associated with p53 signaling pathway (expression change, genes listed in Table 1)","cardiomyocytes [2]; Top2b+/+ cardiomyocytes, 16 hrs after doxorubicin 25 mg/kg i.p.",Up-regulated genes (>1.5 fold) associated with p53 signaling pathway
same,Down-regulated genes associated with mitochondrial dysfunction and oxidative phosphorylation pathways (genes listed in Table 2),cardiomyocytes [2]; [3],Down-regulated Genes (>1.5 fold)
same,Up-regulated genes associated with mitochondrial dysfunction and oxidative phosphorylation pathways (genes listed in Table 2),cardiomyocytes [2]; [3],Up-regulatedGenes (>1.5 fold)
same,Expression change of the genes identified in the p53 pathway,"cardiomyocytes [2]; Top2bΔ/Δ cardiomyocytes, 16 hrs after doxorubicin 25 mg/kg i.p.","TP53INP1 is also called p53DINP1. The list was generated by Ingenuity software, and none of the genes identified in the p53 pathway had an expression change that reached 1.5 fold in Top2b^Δ/Δ cardiomyocytes."
same,Expression change of the genes identified in the mitochondrial dysfunction and oxidative phosphorylation pathways,"cardiomyocytes [2]; Top2bΔ/Δ cardiomyocytes, 72 hrs after doxorubicin 25 mg/kg","The list was generated by Ingenuity software, and none of the genes identified in the 2 pathways had an expression change that reached 1.5 fold in Top2b^Δ/Δ cardiomyocytes."
same,PGC-1α downregulation,cardiomyocytes [2]; [4],1.5 fold
same,PGC-1β downregulation,cardiomyocytes [2]; [4],1.5 fold
same,Reduction of TUNEL-positive nuclei in hearts of Top2bΔ/Δ mice compared with Top2b+/+ mice,heart sections,70%
